# “And” between values parts separate entries of the source, which are not always exact repeats. Equal values may be shown once.
# Key:
# Format in all cases: binding
# STAT4 = molecular target: T1, STAT4 (Homo sapiens, UniProt Q14765); test: CETSA, STAT4 in total cell lysates from NK-92 cells; conditions: NK-92 cell lysates, 100 μM compound
# T1 sequence (Q14765 1-748): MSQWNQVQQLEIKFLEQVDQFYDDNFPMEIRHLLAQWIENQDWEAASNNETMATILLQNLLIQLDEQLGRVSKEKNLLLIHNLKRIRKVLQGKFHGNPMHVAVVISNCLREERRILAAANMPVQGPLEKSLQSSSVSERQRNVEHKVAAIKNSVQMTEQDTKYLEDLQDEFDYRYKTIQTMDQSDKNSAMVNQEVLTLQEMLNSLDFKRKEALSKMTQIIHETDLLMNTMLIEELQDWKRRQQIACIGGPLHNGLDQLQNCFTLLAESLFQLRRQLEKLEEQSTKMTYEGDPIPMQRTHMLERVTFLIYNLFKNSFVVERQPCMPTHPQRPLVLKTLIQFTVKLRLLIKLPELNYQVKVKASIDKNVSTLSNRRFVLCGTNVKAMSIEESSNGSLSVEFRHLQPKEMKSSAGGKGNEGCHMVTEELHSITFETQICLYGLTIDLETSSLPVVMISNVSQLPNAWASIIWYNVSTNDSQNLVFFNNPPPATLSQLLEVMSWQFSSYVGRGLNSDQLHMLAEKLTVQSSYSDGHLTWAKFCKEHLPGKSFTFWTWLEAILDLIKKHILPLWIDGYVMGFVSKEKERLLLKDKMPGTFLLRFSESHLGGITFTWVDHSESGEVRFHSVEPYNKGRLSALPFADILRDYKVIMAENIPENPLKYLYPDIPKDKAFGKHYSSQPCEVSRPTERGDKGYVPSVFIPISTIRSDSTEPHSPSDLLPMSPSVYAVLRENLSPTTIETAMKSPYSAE
# Procedure: (§1) One method by which binding of small molecules to their expected targets in cell lysates can be inferred is the cellular thermal shift assay (CETSA).^[ [23], [24] ^] This assay is based on the observation that reversible protein binding by a small molecule typically stabilizes the bound protein against thermal denaturation. […]
# NK-92 cells (DSMZ) were cultured in α-MEM containing 12.5% fetal bovine serum, 12.5% horse serum, 2 mM L-glutamine, penicillin/streptomycin antibiotics and 50 U/ml human recombinant IL-2 (all reagents from Gibco at Thermo Fisher). […]
# whole-cell lysates, cells were harvested by centrifugation, washed once with ice-cold PBS and resuspended at 3 x 10^6 cells per 100 µl in TBS supplemented with EDTA-free Halt Protease Inhibitor Cocktail (Fisher Scientific). […]
# (§2) CETSA experiments were performed based on the published protocol.[8] […] The soluble fractions were analyzed by Western blotting.
# (§3) Treated lysates were separated by SDS-PAGE on a 10% gel and transferred to nitrocellulose membrane using a TransBlot semi-dry blotting protocol (Bio-Rad Laboratories). Proteins of interest were detected using monoclonal rabbit primary antibodies (Cell Signaling), anti-rabbit-HRP-secondary antibody (Dako) and Pierce ECL Plus chemiluminescence reagent (Thermo Fisher). Bands were visualized using an ImageQuant system (GE Healthcare) and quantitated with ImageJ software (NIH).[9]
# [1] = system: total STAT5 (STAT5a and STAT5b); test: CETSA, total STAT5 in lysates from K562 cells; conditions: K562 cell lysates, 100 μM
# Procedure: as §1
# K562 cells (DSMZ) were cultured […]
# in RPMI 1640 medium containing 10% FBS, 2 mM L-glutamine and penicillin/streptomycin. For whole-cell lysates, cells were harvested by centrifugation, washed once with ice-cold PBS and resuspended at 3 x 10^6 cells per 100 µl in TBS supplemented with EDTA-free Halt Protease Inhibitor Cocktail (Fisher Scientific). Cells were lysed using three freeze-thaw cycles using liquid nitrogen and a room-temperature water bath. […]
# as §2, §3
# STAT3 = STAT3 (Homo sapiens, UniProt P40763); test: CETSA, STAT3 in total cell lysates from NK-92 cells; set-up: the endogenous full‐length proteins (between 748 and 793 amino acids for STAT3/4/5a/5b); endogenous in cells; host or cells: NK-92 cells (DSMZ), whole-cell lysate; conditions: NK-92 cell lysates, 100 μM
# Excerpt: STAT3 was again chosen as a specificity control for CETSA analysis, because it had already been used as control in HTRF assays (Figure 2B), and because we had previously developed CETSA for STAT3 in NK‐92 lysates.^[ [11] ^] […] The relatively low thermal shifts obtained even with the high‐affinity control peptides are consistent with the fact that the SH2 domain of STATs only comprises a small proportion (≈100 amino acids) of the endogenous full‐length proteins (between 748 and 793 amino acids for STAT3/4/5a/5b).^[ [25] ^] […] The CETSA experiments were carried out in cell lysates, not in living cells, to account for the putative inability of PPADS and iso‐PPADS to cross the cell membrane owing to their large number of negative charges. […]
# as §2, §3
# Sequence of STAT3 (P40763 whole entry, species assumed, the tested form may be a part): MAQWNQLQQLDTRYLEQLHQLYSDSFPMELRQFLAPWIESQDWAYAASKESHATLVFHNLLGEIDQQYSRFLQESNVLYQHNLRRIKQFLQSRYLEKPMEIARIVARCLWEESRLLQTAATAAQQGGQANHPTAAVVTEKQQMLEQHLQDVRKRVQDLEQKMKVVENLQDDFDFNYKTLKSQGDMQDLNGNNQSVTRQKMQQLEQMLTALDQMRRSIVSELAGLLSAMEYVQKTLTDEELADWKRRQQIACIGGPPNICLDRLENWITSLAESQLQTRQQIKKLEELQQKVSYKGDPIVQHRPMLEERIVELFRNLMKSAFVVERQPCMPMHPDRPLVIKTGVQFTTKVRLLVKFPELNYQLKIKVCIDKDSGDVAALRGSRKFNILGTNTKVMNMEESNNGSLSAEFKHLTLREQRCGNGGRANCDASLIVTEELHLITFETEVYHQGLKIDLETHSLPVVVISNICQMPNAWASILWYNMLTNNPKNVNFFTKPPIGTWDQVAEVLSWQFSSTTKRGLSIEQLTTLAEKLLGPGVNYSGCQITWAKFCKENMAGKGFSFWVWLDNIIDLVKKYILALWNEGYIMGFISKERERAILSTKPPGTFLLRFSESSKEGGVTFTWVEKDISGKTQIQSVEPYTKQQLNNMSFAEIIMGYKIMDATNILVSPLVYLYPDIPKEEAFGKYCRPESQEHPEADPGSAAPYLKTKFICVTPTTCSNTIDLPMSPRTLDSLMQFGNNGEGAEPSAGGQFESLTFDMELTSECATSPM
structure (smiles),measurement,setting,value
"Cc1nc(/N=N/c2ccc(S(=O)(=O)O)cc2S(=O)(=O)O)c(COP(=O)(O)O)c(C=O)c1O [PPADS, pyridoxalphosphate‐6‐azophenyl‐2',4'‐disulfonic acid]",increase of the aggregation temperature of STAT4 (ΔT agg),STAT4,1.1 °C
same,aggregation temperature of STAT4 (T agg),STAT4; DMSO control 48.9 ± 0.4 °C,50.0 ± 0.4 °C and 50.0 °C
same,ΔT agg of total STAT5,[1],2.7 °C
same,aggregation temperature of total STAT5 (T agg),[1]; DMSO control 49.0 °C,51.7 °C
same,increase of the aggregation temperature of STAT3 (ΔT agg),STAT3,0.57 °C
same,aggregation temperature of STAT3 (T agg),STAT3; DMSO control 51.47 °C,52.04 °C

# — paper PMC12442245, “Activity Analysis of the P2X Receptor Antagonist PPADS against Signal Transducer and Activator of Transcription Proteins” (Chembiochem, 2025)
